According to ChEMBL document CHEMBL1125627 (J Med Chem, 1991):

Legend:
[1] = Serum protein binding ability was measured; type: ADME
[2] = Percentage ionization was measured; type: ADME

pKa (physchem)	Binding [1]	Ionization [2]	Structure (SMILES)
8.8	80%	> 96%	CC[C@H]1OC(=O)[C@H](C)[C@@H](O[C@H]2C[C@@](C)(OC)[C@@H](O)[C@H](C)O2)[C@H](C)[C@@H](O[C@@H]2O[C@H](C)C[C@H](N(C)C)[C@H]2O)[C@](C)(O)C[C@@H](C)C(=O)[C@H](C)[C@@H](O)[C@]1(C)O [ERYTHROMYCIN]
9.2	95%	> 96%	CC[C@H]1OC(=O)[C@H](C)[C@@H](O[C@H]2C[C@@](C)(OC)[C@@H](O)[C@H](C)O2)[C@H](C)[C@@H](O[C@@H]2O[C@H](C)C[C@H](N(C)C)[C@H]2O)[C@](C)(O)C[C@@H](C)/C(=N\OCOCCOC)[C@H](C)[C@@H](O)[C@]1(C)O [ROXITHROMYCIN]
